# Paper PMC6257622, “Discovery and Structure–Activity-Relationship Study of N-Alkyl-5-hydroxypyrimidinone Carboxamides as Novel Antitubercular Agents Targeting Decaprenylphosphoryl-β-D-ribose 2′-Oxidase” (Journal of Medicinal Chemistry, 2018)
# What was measured:
# Format in all cases: cell-based, Mycobacterium tuberculosis
# [1] = tested on: dprE12–TetON1 mutant (dprE1–dprE2 operon); settings: removal of anhydrotetracycline; OD580nm at day 10 relative to DMSO control
# [2] = tested on: P01-resistant mutants of Mtb H37Rv
# Mtb DprE1 Y314H mutant = tested on: Mtb DprE1 Y314H mutant
# Mtb DprE1 Y314C mutant = tested on: Mtb DprE1 Y314C mutant
# Mtb DprE1 N364S mutant = tested on: Mtb DprE1 N364S mutant
# Mtb DprE1 P116S mutant = tested on: Mtb DprE1 P116S mutant
structure (smiles),measurement,setting,value
"C[C@H]1COC2(CCN(c3nc(=O)c4cc(C(F)(F)F)cc([N+](=O)[O-])c4s3)CC2)O1 [BTZ043, reference compound]",effect of dprE1–dprE2 transcriptional repression on susceptibility / growth inhibition,[1],increase in susceptibility
"CCn1c(Cc2ccccc2C(F)(F)F)nc(C(=O)NCc2ccccc2)c(O)c1=O [Compound P04, N-Benzyl-1-ethyl-5-hydroxy-6-oxo-2-(2-(trifluoromethyl)benzyl)-1,6-dihydropyrimidine-4-carboxamide]",effect of dprE1–dprE2 transcriptional repression on susceptibility / growth inhibition,[1],more growth inhibition
"CC(NC(=O)c1nc(Cc2ccccc2C(F)(F)F)n(C)c(=O)c1O)c1ccccc1 (stereo not shown) [Compound P13, 5-Hydroxy-1-methyl-6-oxo-N-(1-phenylethyl)-2-(2-(trifluoromethyl)benzyl)-1,6-dihydropyrimidine-4-carboxamide]",effect of dprE1–dprE2 transcriptional repression on susceptibility / growth inhibition,[1],did not result in growth inhibition
"CC[C@@H](CO)NCCN[C@@H](CC)CO [ethambutol, reference compound]",effect of dprE1–dprE2 transcriptional repression on susceptibility / growth inhibition,[1],equipotent efficacy
"CCOC(=O)NC(=O)c1ccsc1NC(=O)c1nc2ccccc2s1 [TCA1, reference compound]",effect of dprE1–dprE2 transcriptional repression on susceptibility / growth inhibition,[1],increase in susceptibility
"Cn1c(Cc2ccccc2C(F)(F)F)nc(C(=O)NCc2ccccc2)c(O)c1=O [Compound P01, N-Benzyl-5-hydroxy-1-methyl-6-oxo-2-(2-(trifluoromethyl)benzyl)-1,6-dihydropyrimidine-4-carboxamide]",level of resistance of P01-resistant mutants compared with the parental strain,[2],more than 10 fold
same,mutation frequency,[2]; at 10× MIC on solid medium,7 × 10^–9
same,"MIC, DprE1 mutation Y314H",Mtb DprE1 Y314H mutant,>50 µM
same,"fold change of MIC, Y314H",Mtb DprE1 Y314H mutant,>16
same,"MIC, DprE1 mutation Y314C",Mtb DprE1 Y314C mutant,25 µM
same,"fold change of MIC, Y314C",Mtb DprE1 Y314C mutant,8
same,"MIC, DprE1 mutation N364S",Mtb DprE1 N364S mutant,2.34 µM
same,"fold change of MIC, N364S",Mtb DprE1 N364S mutant,0.75
same,"MIC, DprE1 mutation P116S",Mtb DprE1 P116S mutant,18.8 µM
same,"fold change of MIC, P116S",Mtb DprE1 P116S mutant,6
same,effect of dprE1–dprE2 transcriptional repression on susceptibility / growth inhibition,[1],more growth inhibition
